In one data set the test system is CRC xenografts. In words: H&E and immunohistochemistry on tissues of nude mice with CRC xenografts. Format: in vivo, mouse. The source says: FIGS. 14A and 14B are graphs showing immunohistochemistry staining scores for the images of H&E and immunohistochemistry staining of Ki67 (FIG. 14A) and cleaved caspase-3 staining (FIG. 14B) of tumor tissues from the vehicle- or CL16-treated mice. FIGS. 14C and 14D are graphs showing immunohistochemistry staining scores for the images of H&E, Ki67 (FIG. 14C) and cleaved caspase-3 (FIG. 14D) staining of tumor tissues from the vehicle- or CL16-treated mice with HT29 xenografts.
After confirming the anticancer properties of CL16 on CRC cells and RhoA Cys16 as its primary molecular target, the anticancer effect of CL16 in vivo was studied.

Another data set concerns HCT116 cells. In words: Gel ABPP in HCT116 cells with CL16-alkyne. Format: cell-based, human. As for the experimental part:
HCT116 and SW620 cells were plated onto 6-well plate at a density of 5×10^5 cells per well overnight. Then the cells were treated with CL16 at indicated concentration for 2 hours, followed by treatment with CL16-alkyne (1 μM) for 2 hours. After treatment, the cells were washed with PBS and lysed by probe sonication. Cell debris were removed by centrifugation at 5,000g for 10 min at 4° C. 50 μL of normalized protein lysates (2 mg/mL) were labeled with azide-fluor 545 by copper-catalyzed azide-alkyne cycloaddition at room temperature in dark for an hour. Then, the reaction was quenched by boiling in sampling buffer and samples were subjected to SDS-PAGE to separate proteins band for measuring in-gel fluorescence. After imaging, the gel was washed with MilliQ and incubated with Coomassie Blue stain with gentle shaking.
To identify protein target and any off-targets of CL16 in CRCs, a molecular probe of CL16, CL16-alkyne (FIG. 6A), was synthesized. […] The protein bands were then visualized by their in-gel fluorescence or blotted for RhoA. […] The probe-labeled proteins were installed with rhodamine through CuAAC, and visualized by their in-gel fluorescence after SDS-PAGE. A protein band with strong fluorescence was found at −22 kDa in the sample incubated with CL16-alkyne only, in line with the molecular weight of RhoA (FIG. 6C).

In another data set the test system is SW620 spheroid. In words: Spheroid formation assay, SW620. Format: cell-based, human. As to the method:
FIGS. 5A-5B are graphs showing the anticancer effects of CL16 in HT29 (FIG. 5A) and SW620 (FIG. 5B) spheroids. HT29 spheroid or SW620 spheroid were treated with CL16 at the indicated concentrations for 10 days. The spheroids were then imaged by microscope using 10× objective and the size was determined by ImageJ.
5,000 cells of HT29 and SW620 cells were inoculated in serum-free DMEM/F12 medium with 20 ng/mL […] growth factor (EGF) in 96-well round-bottom low-affinity plate (Nunc). Medium was supplemented with CL16 or Rhosin when spheroid has formed an opaque core. Morphology was recorded under a light microscope with 10× objective.
To further investigate the anticancer effects of CL16, HT29 and SW620 cells were inoculated as spheroids in low-affinity plate with 20 ng/mL EGF, and incubated with different concentrations of CL16 or Rhosin.

Data set [1] deals with normal colon fibroblast CCD-18Co cells. In words: MTT assay on normal colon fibroblasts. Format: cell-based, human. The settings on record: 48 h, compared with CRCs. As for the experimental part: HCT116 cells was seeded at 2,500 cells/well; HT29, LOVO and SW620 cells were seeded at 4,000 cells/well; CCD-18Co cells were seeded at 10,000/well; and SW480 cells were seeded at 12,000 cells/well in 96 well plate in triplicates. Cells were treated with a concentration gradient of CL16 for 48 hours. Then, cells were incubated with 10% 3-(4,5-Dimethylthiazol-2-yl)-2,5-diphenyltetrazolium bromide (MTT) solution ([…]) in 37° C. for 4 hours. Cells were then lyzed in 10% SDS in […] HCl. Absorbance of individual well was measured at 570 nm. IC50 values were analyzed by nonlinear best-fit regression using Prism Graphpad 9.
As discussed above, overexpression/hyperactivity of RhoA associated with poor prognosis and aggressive behaviors of CRCs (FIG. 8A). Thus, the anti-cancer and anti-metastatic properties of CL16 in CRCs were explored. First, it was confirmed that genetic knockdown of RhoA by siRNA slowed down colony formation and migration of CRCs by using staining (data not shown) and wound healing assay (FIG. 4A). MTT assay was used to determine cell viability of CRCs and normal colon fibroblast CCD-18Co cells treated with CL16 for 48 h (n=3 different biological replicates/group). A much lower expression level of RhoA in normal colon fibroblast CCD-18Co cells was also determined, as compared to CRCs, by western blotting (data not shown). […]

Each structure is given as a SMILES string.

Consider `O=C(CCl)N1N=C(c2cc3ccccc3o2)CC1c1ccco1` (centres unmarked) [CL16], for which the “H&E staining of major organs” value in the data set on CRC xenografts (CL16-treated mice) was “no observable damages on major organs”. Besides, in the data set on CRC xenografts (CL16-treated vs solvent), the “Ki67 immunohistochemistry on tumor tissues” value was “reduction in Ki67”. Moreover, the “cleaved caspase-3 level in tumor tissues” value in the data set with CRC xenografts (CL16-treated vs vehicle) is recorded as “elevated cleaved caspase-3 level”. Besides, in the data set on HCT116 cells (CL16 pre-treatment at 10 μM), the “fluorescent protein band at 22 kDa labeled by CL16-alkyne” value is listed as “complete abolishment of the protein band”. Moreover, in the data set on HCT116 cells (HCT116 cells), the off-target binding result is given as “minimal off-target binding”. Besides, the “growth of SW620 spheroids” value with SW620 spheroid (20 ng/mL EGF, low-affinity plate) was “significant inhibitions in the growth”. Moreover, the IC50 in the data set with SW620 spheroid (Homo sapiens, SW-620, 240 h, 10 days, read-out: cytotoxic IC50 in SW620 spheroids) came to 4.1 µM. In addition, the “toxicity in normal cells (cell viability)” value in data set [1] is “much less toxic”.

(Values after US20250073209A1, “COVALENT TARGETING OF RhoA FOR CANCER THERAPY” (The University of Hong Kong, priority 2023, published 2025).)
